Test results as given in ChEMBL document CHEMBL4421719, “Modulation of k2p channels” (2016).
Calls of active or inactive are those of the source. The calls are words filed in the database; no cut-off is given here.

Assays:
Type in all cases: cell-based
[1] = molecular target: T1, Potassium channel subfamily K member 5 (Homo sapiens) (UniProt O95279); assay: Activation of K2P5.1 (unknown origin) expressed in Xenopus oocytes assessed as effect on channel currents at -80 mV holding potential by two-electrode voltage clamp assay relative to control
T1 sequence (whole entry): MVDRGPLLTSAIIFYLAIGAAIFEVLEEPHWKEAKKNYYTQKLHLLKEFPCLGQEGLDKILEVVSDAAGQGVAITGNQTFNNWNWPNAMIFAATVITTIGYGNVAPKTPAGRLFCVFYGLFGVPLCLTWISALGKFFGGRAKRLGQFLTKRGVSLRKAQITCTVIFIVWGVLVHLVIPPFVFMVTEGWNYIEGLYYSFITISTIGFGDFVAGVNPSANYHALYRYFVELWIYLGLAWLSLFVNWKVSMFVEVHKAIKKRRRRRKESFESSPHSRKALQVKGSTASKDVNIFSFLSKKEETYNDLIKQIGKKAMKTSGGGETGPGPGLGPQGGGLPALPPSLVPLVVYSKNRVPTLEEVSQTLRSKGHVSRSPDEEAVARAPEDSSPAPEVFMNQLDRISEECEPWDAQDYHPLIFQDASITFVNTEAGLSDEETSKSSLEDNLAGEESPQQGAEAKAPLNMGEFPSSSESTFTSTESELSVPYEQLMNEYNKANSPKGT

[2] = molecular target: T1, Potassium channel subfamily K member 5 (Homo sapiens); assay: Activation of K2P5.1 (unknown origin) expressed in Xenopus oocytes assessed as effect on channel currents at -80 mV holding potential at 100 uM by two-electrode voltage clamp assay relative to control
[3] = molecular target: T2, Potassium channel subfamily K member 2 (Homo sapiens) (UniProt O95069); assay: Activation of K2P2.1 (unknown origin) expressed in HEK293T cell membranes in outside-out patch configuration assessed as effect on channel currents at 20 uM by two-electrode voltage clamp assay relative to control
T2 sequence (whole entry): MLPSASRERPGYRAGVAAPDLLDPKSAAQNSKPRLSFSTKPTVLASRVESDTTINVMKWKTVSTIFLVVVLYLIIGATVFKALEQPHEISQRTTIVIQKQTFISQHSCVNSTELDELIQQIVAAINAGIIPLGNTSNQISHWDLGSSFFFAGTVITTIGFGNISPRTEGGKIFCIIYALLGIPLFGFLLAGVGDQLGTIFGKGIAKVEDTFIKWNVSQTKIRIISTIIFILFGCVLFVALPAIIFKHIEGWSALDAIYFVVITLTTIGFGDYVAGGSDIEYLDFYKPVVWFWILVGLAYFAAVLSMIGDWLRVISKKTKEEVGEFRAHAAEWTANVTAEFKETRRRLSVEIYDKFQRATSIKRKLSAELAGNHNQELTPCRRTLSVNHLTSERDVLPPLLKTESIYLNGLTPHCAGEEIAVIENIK

[4] = molecular target: T3, Potassium channel subfamily K member 10 (Homo sapiens) (UniProt P57789); assay: Activation of K2P10.1 (unknown origin) expressed in Xenopus oocytes assessed as effect on channel currents at -80 mV holding potential by two-electrode voltage clamp assay relative to control
T3 sequence (whole entry): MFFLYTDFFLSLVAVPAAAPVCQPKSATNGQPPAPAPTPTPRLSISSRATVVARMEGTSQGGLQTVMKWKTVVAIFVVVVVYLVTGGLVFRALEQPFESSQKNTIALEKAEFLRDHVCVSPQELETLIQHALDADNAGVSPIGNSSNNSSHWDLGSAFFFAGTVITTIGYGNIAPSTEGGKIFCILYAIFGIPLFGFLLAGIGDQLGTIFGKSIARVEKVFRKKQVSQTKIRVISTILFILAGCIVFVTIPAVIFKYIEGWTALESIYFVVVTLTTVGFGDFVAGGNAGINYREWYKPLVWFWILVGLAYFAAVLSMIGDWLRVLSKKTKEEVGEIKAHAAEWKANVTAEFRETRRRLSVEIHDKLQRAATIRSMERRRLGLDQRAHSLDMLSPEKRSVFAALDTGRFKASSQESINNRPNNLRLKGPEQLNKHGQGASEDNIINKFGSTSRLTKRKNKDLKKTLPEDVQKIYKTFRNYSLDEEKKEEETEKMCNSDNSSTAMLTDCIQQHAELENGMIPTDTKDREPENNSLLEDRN

[5] = molecular target: Potassium channel subfamily K member 3 (Homo sapiens) (UniProt O14649); assay: Activation of K2P3.1 (unknown origin) expressed in Xenopus oocytes assessed as effect on channel currents at -80 mV holding potential at 100 uM by two-electrode voltage clamp assay relative to control
Potassium channel subfamily K member 3 (Homo sapiens), sequence (O14649 whole entry, looked up): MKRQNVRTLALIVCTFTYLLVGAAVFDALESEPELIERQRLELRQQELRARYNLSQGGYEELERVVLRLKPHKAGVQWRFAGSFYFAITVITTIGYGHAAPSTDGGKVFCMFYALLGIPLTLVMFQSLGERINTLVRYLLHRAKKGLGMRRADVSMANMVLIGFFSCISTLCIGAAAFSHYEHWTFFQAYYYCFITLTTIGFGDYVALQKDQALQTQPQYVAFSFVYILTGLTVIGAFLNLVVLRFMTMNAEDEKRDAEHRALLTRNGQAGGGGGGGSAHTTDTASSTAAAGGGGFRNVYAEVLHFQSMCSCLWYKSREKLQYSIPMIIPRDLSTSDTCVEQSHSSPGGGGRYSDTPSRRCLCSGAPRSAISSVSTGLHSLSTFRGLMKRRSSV

[6] = molecular target: Potassium channel subfamily K member 9 (Homo sapiens) (UniProt Q9NPC2); assay: Activation of K2P9.1 (unknown origin) expressed in Xenopus oocytes assessed as effect on channel currents at -80 mV holding potential at 100 uM by two-electrode voltage clamp assay relative to control
Potassium channel subfamily K member 9 (Homo sapiens), sequence (Q9NPC2 whole entry): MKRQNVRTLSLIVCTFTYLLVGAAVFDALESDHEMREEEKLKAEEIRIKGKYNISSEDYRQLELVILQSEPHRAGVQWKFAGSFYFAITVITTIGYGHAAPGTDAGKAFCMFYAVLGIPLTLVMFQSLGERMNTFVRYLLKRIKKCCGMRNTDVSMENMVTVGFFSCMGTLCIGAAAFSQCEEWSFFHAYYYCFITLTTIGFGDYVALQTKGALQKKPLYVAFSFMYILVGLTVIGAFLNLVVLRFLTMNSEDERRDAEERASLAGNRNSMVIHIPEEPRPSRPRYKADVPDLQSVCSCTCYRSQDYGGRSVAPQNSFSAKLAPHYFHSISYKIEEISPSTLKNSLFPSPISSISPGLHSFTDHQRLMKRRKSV

[7] = test system: Potassium channel subfamily K member 2 (Homo sapiens), O95069 [UNDEFINED MUTATION]; assay: Activation of K2P2.1 W275S mutant (unknown origin) expressed in Xenopus oocytes assessed as effect on channel currents at -80 mV holding potential by two-electrode voltage clamp assay relative to control
[8] = test system: Potassium channel subfamily K member 2 (Homo sapiens), O95069 [UNDEFINED MUTATION]; assay: Activation of K2P2.1 G137I mutant (unknown origin) expressed in Xenopus oocytes assessed as effect on channel currents at 50 uM at -80 mV holding potential by two-electrode voltage clamp assay
[9] = Activation of K2P2.1 3G mutant (unknown origin) expressed in Xenopus oocytes assessed as effect on channel currents at -80 mV holding potential by two-electrode voltage clamp assay; conditions: Homo sapiens
[10] = molecular target: T4, Potassium channel subfamily K member 2 (Homo sapiens, UniProt O95069); assay: Activation of K2P2.1 (unknown origin) expressed in Xenopus oocytes assessed as effect on channel currents at -80 mV holding potential by two-electrode voltage clamp assay
T4 sequence (O95069 whole entry): T2 sequence (whole entry)

[11] = molecular target: T2, Potassium channel subfamily K member 2 (Homo sapiens); assay: Activation of K2P2.1 (unknown origin) expressed in HEK293T cells assessed as effect on channel currents at -40 mV holding potential at 100 uM by two-electrode voltage clamp assay relative to control
[12] = molecular target: Potassium channel subfamily K member 2 (Homo sapiens, UniProt O95069, W275S); assay: Activation of K2P2.1 W275S mutant (unknown origin) expressed in Xenopus oocytes assessed as effect on channel currents at -80 mV holding potential by two-electrode voltage clamp assay
[13] = molecular target: Potassium channel subfamily K member 9 (Homo sapiens) (UniProt Q9NPC2); assay: Activation of K2P9.1 (unknown origin) expressed in Xenopus oocytes assessed as effect on channel currents at 150 uM at -80 mV holding potential by two-electrode voltage clamp assay relative to control
[14] = test system: Potassium channel subfamily K member 2 (Homo sapiens), O95069 [UNDEFINED MUTATION]; assay: Activation of K2P2.1 W275S mutant (unknown origin) expressed in Xenopus oocytes assessed as effect on channel currents at 50 uM at -80 mV holding potential by two-electrode voltage clamp assay

Emax [1]: 1.7 | Emax [2]: 1.7% | Activity [3]: Active | Emax [4]: 11.4 | Emax [5]: 1.1% | Emax [6]: 2% | Emax [7]: 5.1 | Activity [8]: inactive | EC50 [9]: 49.4 µM | EC50 [10]: 36.3 to 38.5 µM | Emax [11]: 11.4% | EC50 [12]: 21.8 µM | Emax [13]: 2.1 | Activity [14]: inactive
SMILES: CC1(C)c2cc(Cl)ccc2N(CCc2nnn[nH]2)c2ccc(Cl)cc21
